Source: patent US20070299110A1, “Novel Tetrazole Derivatives as Positive Allosteric Modulators of Metabotropic Glutamate” (priority 2004, published 2007)

Tests used:
Male C57BL6/j mice = experiment: Amphetamine-induced locomotor activity in mice (amphetamine model of schizophrenia); assay type: in vivo; conditions: 30 mg/kg ip, 30 minutes before amphetamine sulphate 3.0 mg/kg s.c., distance traveled measured for 60 minutes, p<0.01 vs vehicle-amphetamine
From the text: Amphetamine-induced increases in locomotor ambulation are well known and are widely used as a model of the positive symptoms of schizophrenia. This model is based on evidence that amphetamine increases motor behaviors and can induce a psychotic state in humans (Yui et al. (2000) Ann NY Acad Sci 914:1-12). Further, it is well known that amphetamine-induced increases in locomotor activity are blocked by antipsychotics drugs that are effective in the treatment of schizophrenia (Ant (1995) Eur J Pharmacol 283:55-62). […]
Assessment of locomotor (ambulatory) activity: The effects of compounds on amphetamine-induced locomotor activation in mice were tested. […] Locomotor activity (ambulations) was monitored by a videotracking system (VideoTrack, Viewpoint, Champagne au Mont d'Or, France) that recorded the ambulatory movements of mice. […] Mice were placed into the locomotor boxes immediately after the amphetamine injection and their locomotor activity, defined as the distance traveled in centimeters (cm), was measured for 60 minutes. […]
Statistical analyses: Statistical analyses were performed using GraphPad PRISM statistical software (GraphPad, San Diego, Calif., USA). Data were analyzed using an unpaired t-test. […]

Compound	melting point [°C]	increase in locomotor activity induced by amphetamine (Male C57BL6/j mice; listed as #1)	increase in locomotor activity induced by amphetamine (Male C57BL6/j mice; listed as example 1)
O=C(c1ccc(F)cc1F)N1CCC[C@H](n2nnc(-c3ccc(F)cc3)n2)C1 [Example 25, (2,4-Difluoro-phenyl)-{(S)-3-[5-(4-fluoro-phenyl)-tetrazol-2-yl]-piperidin-1-yl}-methanone]	65 to 68		
O=C(c1ccc(F)c(F)c1)N1CCC[C@H](n2nnc(-c3ccc(F)cc3)n2)C1 [Example 24, (3,4-Difluoro-phenyl)-{(S)-3-[5-(4-fluoro-phenyl)-tetrazol-2-yl]-piperidin-1-yl}-methanone]	123 to 128		
O=C(c1ccc(F)cc1)N1CCC[C@H](n2nnc(-c3ccc(F)cc3)n2)C1 [Example 1, (4-Fluoro-phenyl)-{(S)-3-[5-(4-fluoro-phenyl)-tetrazol-2-yl]-piperidin-1-yl}-methanone]	109 to 110	significantly attenuate	significantly attenuated
O=C(c1ccc(F)nc1)N1CCC[C@H](n2nnc(-c3ccc(F)cc3)n2)C1 [Example 21, {(S)-3-[5-(4-Fluoro-phenyl)-tetrazol-2-yl]-piperidin-1-yl}-(6-fluoro-pyridin-3-yl)-methanone]	109 to 110		
O=C(c1ccc(F)cc1)N1CCCC(n2nnc(-c3ccc(F)cc3)n2)C1 (stereo not shown) [Example 2, (4-Fluoro-phenyl)-{3-[5-(4-fluoro-phenyl)-tetrazol-2-yl]-piperidin-1-yl}-methanone]	137 to 139		
